Test results reported in ChEMBL document CHEMBL3885861, “Open TG-GATES”.

Organism: Rattus norvegicus
Test: Open TG-GATES - Regimen: Single
Type: toxicity, organism-based, Sprague-Dawley
Set-up: regimen Single, gender Male, age 6 weeks
Details: in vivo, po, 0 mg/kg, route gavage, dose level Control; for APTT / Bas / Eos / Fbg / Hb / Ht / Lym / MCH / MCHC / MCV / Mono / Neu / PT / Plat / RBC / Ret / WBC: tissue Blood; for KIDNEY_L / KIDNEY_R / KIDNEY_TOTAL: tissue Kidney; for LIVER: tissue Liver; for A/G / ALP / ALT / AST / BUN / CRE / Ca / Cl / DBIL / GLC / IP / K / LDH / Na / PL / RALB / TBIL / TC / TG / TP / gamma-GTP: tissue Plasma

## O=C(O)c1ccccc1Nc1ccccc1 [FENAMIC ACID]
3 h
  TERMINAL_BW: 209.2 g
  APTT: 16.5 s
  Bas: 0.4%
  Eos: 1%
  Fbg: 255.6 mg/dL
  Hb: 13.1 g/dL
  Ht: 39.6%
  Lym: 73.4%
  MCH: 20.8 pg
  MCHC: 33%
  MCV: 63.1 fL
  Mono: 2%
  Neu: 22.8%
  PT: 14 s
  Plat: 119.2 x10_4/uL
  RBC: 627.8 x10_4/ul
  Ret: 8.3%
  WBC: 95.4 x10_2/uL
  KIDNEY_L: 0.9 g
  KIDNEY_R: 0.9 g
  KIDNEY_TOTAL: 1.8 g
  LIVER: 8.8 g
  A/G: 0.9
  ALP: 1511 IU/L
  ALT: 33.2 IU/L
  AST: 75 IU/L
  BUN: 9.2 mg/dL
  CRE: 0.2 mg/dL
  Ca: 10.9 mg/dL
  Cl: 105.4 meq/L
  DBIL: 0.008 mg/dL
  GLC: 185.4 mg/dL
  IP: 9 mg/dL
  K: 4.2 meq/L
  LDH: 75.4 IU/L
  Na: 144 meq/L
  PL: 132 mg/dL
  RALB: 2.5 g/dL
  TBIL: 0.05 mg/dL
  TC: 69 mg/dL
  TG: 77.6 mg/dL
  TP: 5.4 g/dL
  gamma-GTP: 1 IU/L
6 h
  TERMINAL_BW: 204.2 g
  APTT: 18.5 s
  Bas: 0.4%
  Eos: 0.8%
  Fbg: 283.4 mg/dL
  Hb: 13.2 g/dL
  Ht: 39.8%
  Lym: 76.4%
  MCH: 20.7 pg
  MCHC: 33.1%
  MCV: 62.7 fL
  Mono: 2.8%
  Neu: 19.6%
  PT: 13.9 s
  Plat: 112.2 x10_4/uL
  RBC: 634.4 x10_4/ul
  Ret: 8.3%
  WBC: 84.7 x10_2/uL
  KIDNEY_L: 0.9 g
  KIDNEY_R: 0.9 g
  KIDNEY_TOTAL: 1.8 g
  LIVER: 8.2 g
  A/G: 0.9
  ALP: 1530.8 IU/L
  ALT: 35 IU/L
  AST: 77.4 IU/L
  BUN: 7.8 mg/dL
  CRE: 0.2 mg/dL
  Ca: 11.1 mg/dL
  Cl: 105 meq/L
  DBIL: 0.004 mg/dL
  GLC: 157.2 mg/dL
  IP: 9.1 mg/dL
  K: 4.1 meq/L
  LDH: 79.6 IU/L
  Na: 143 meq/L
  PL: 136.8 mg/dL
  RALB: 2.5 g/dL
  TBIL: 0.054 mg/dL
  TC: 75.6 mg/dL
  TG: 56.2 mg/dL
  TP: 5.4 g/dL
  gamma-GTP: 1.2 IU/L
9 h
  TERMINAL_BW: 204.4 g
  APTT: 18.2 s
  Bas: 0.6%
  Eos: 1%
  Fbg: 261.6 mg/dL
  Hb: 13.3 g/dL
  Ht: 40.4%
  Lym: 75.4%
  MCH: 20.5 pg
  MCHC: 33.1%
  MCV: 62.1 fL
  Mono: 1.8%
  Neu: 21.6%
  PT: 14.3 s
  Plat: 129.3 x10_4/uL
  RBC: 650.4 x10_4/ul
  Ret: 8.1%
  WBC: 69 x10_2/uL
  KIDNEY_L: 0.9 g
  KIDNEY_R: 0.9 g
  KIDNEY_TOTAL: 1.8 g
  LIVER: 7.9 g
  A/G: 0.9
  ALP: 1501.2 IU/L
  ALT: 35 IU/L
  AST: 77.6 IU/L
  BUN: 9.2 mg/dL
  CRE: 0.2 mg/dL
  Ca: 10.8 mg/dL
  Cl: 106 meq/L
  DBIL: 0 mg/dL
  GLC: 182.4 mg/dL
  IP: 9.6 mg/dL
  K: 3.9 meq/L
  LDH: 70 IU/L
  Na: 145 meq/L
  PL: 130.6 mg/dL
  RALB: 2.6 g/dL
  TBIL: 0.05 mg/dL
  TC: 72.8 mg/dL
  TG: 39 mg/dL
  TP: 5.5 g/dL
  gamma-GTP: 1.2 IU/L
24 h
  TERMINAL_BW: 218.8 g
  APTT: 16.2 s
  Bas: 0.8%
  Eos: 1%
  Fbg: 271 mg/dL
  Hb: 13.5 g/dL
  Ht: 40.9%
  Lym: 80.6%
  MCH: 20.9 pg
  MCHC: 33%
  MCV: 63.3 fL
  Mono: 2%
  Neu: 15.2%
  PT: 14.4 s
  Plat: 124.1 x10_4/uL
  RBC: 646.8 x10_4/ul
  Ret: 7%
  WBC: 111.8 x10_2/uL
  KIDNEY_L: 1 g
  KIDNEY_R: 1 g
  KIDNEY_TOTAL: 1.9 g
  LIVER: 9.7 g
  A/G: 0.9
  ALP: 1870.8 IU/L
  ALT: 44.4 IU/L
  AST: 73.8 IU/L
  BUN: 13.4 mg/dL
  CRE: 0.2 mg/dL
  Ca: 11.2 mg/dL
  Cl: 105.2 meq/L
  DBIL: 0.008 mg/dL
  GLC: 177.2 mg/dL
  IP: 7.8 mg/dL
  K: 4.2 meq/L
  LDH: 85.4 IU/L
  Na: 142.6 meq/L
  PL: 148.4 mg/dL
